In US20180353445A1, “METHODS AND COMPOSITIONS RELATING TO PROTEASOME INHIBITOR RESISTANCE” (Whitehead Institute for Biomedical Research, priority 2017, published 2018):
“Also recorded” adds a separate entry of the source.

What was measured:
Format in all cases: cell-based, human
[1] = test system: T47D cells with doxycycline inducible PSMD2 KD (Lo19S) versus control cells; test: Lo19S T47D drug screen (PSMD2 KD versus control cells, CellTiter-Glo); conditions: T47D, Lo19S state by dox-inducible PSMD2 shRNA; compound library screen; 72 h; CellTiter-Glo
Protocol: The effect of each drug on viability of cells was calculated by averaging the duplicate experiments. The data is plotted in FIG. 16 as the log2 of the ratio of viability of PSMD2 KD versus control cells (log2 (shPSMD2/Control)). […] The Selleck natural product library (NPC) comprising 502 compounds in 5 doses and the. NIH bioactive compound library that includes 731 compounds in 4 doses were also screened using the same system.
A deeper understanding of the proteasome inhibitor resistant state could yield insights into the molecular mechanisms activated by cells to cope with proteotoxic stress and elucidate new therapeutic strategies for cancer. With these goals in mind, we screened mechanistically diverse small molecule libraries to identify compound sensitivities altered by the Lo19S and Hi-OXPHOS states. An initial screen was conducted in the isogenic T47D model with transient induction of the Lo19S state as described above, We evaluated >4300 mechanistically well-defined compounds within 4 libraries. The compounds included approved cancer drugs (Selleck anti-cancer library: CDL), common natural products (Natural product library: NPC) and an ^-NIH bioactives library (NIH). Each of these compounds was tested at ≥4 concentrations. (Table S5, data not shown), An additional 2866 compounds from the Boston University's Chemical Methodology and Library Development (CMLD-BU) small molecule collection was screened at a single dose (BULL, see Table S5).
(§1) Generation of the Lo19S T47D cell line—For the generation of the T47D Tet-inducible PSMD2 knockdown cell line—the TRIPZ vector with an inducible shRNA targeting PSMD2 was purchased from Dharmacon (clone V3THS_403760). It was introduced to the T47D cells according to manufactures protocol and cells were selected with puromycin 1 g/ml for one week. The cells were exposed to doxycycline for 24 hours and cells were FACS sorted for the top 10% of most RFP expressing cells (highest expression of shRNA). The cells were further cultured in the absence of doxycycline and PSMD2 knockdown was induced as specified in the text.
After 48 hours the cells were collected counted and plated (in the absence of dox) at 1000 cells/well in 384-well opaque, white assay plates (Coming, NY), 50 uL per well, and incubated overnight at 37° C./5% CO2. Compound stocks from the Cancer drug library containing 349 bioactive compounds that were arrayed in dose 10 nM, 100 nM, 1 uM, 10 uM (Selleck anti-cancer compound library L3000), the natural products library containing 502 compounds that were utilized in 5 doses (dilution of 1:1000 of 2ug/ml, 0.2 ug/ml, 0.002/ug/ml, 0.0002 ug/ml), the NIH bioactive library including 731 drugs in dose of 10 nM, 100 nM, 1 uM, 10 uM and the Boston University's CMLD (Chemical Methodology and Library Development) compound deck containing 2866 compounds in one dose (10 uM), including novel chemotypes that uniquely probe three-dimensional space by employing stereochemical and positional variation within the molecular framework as diversity elements in library design. 50 nl of compounds were pin-transferred (V&P Scientific, CA, pin tool mounted onto Tecan Freedom Evo 150 MCA96 head, Tecan, Calif.) into duplicate assay plates and incubated for 72 h. The DMSO content was 0.1% within each well, Per plate, there are 32 wells of DMSO vehicle control and 32 wells of positive control compounds. After three days of incubation, 10 uL of CellTiter-Glo (Promega, Wis.) was added to each well, incubated for 10 minutes and the luminescence output was read on the M1000 Infinite Pro plate reader (Tecan, Calif.).

[2] = test system: T47D cells; test: Competition co-culture of TurboRFP PSMD2 shRNA and GFP control shRNA T47D cells, FACS/microscopy; conditions: 1:10 plating ratio, panel of proteasome inhibitors
Protocol: We created two cell lines—one line that expresses red fluorescent protein (turboRFP) and the doxycycline-inducible PSMD2-targeting shRNA and another line that expresses green fluorescent protein (GFP) and a doxycycline-inducible control shRNA (FIG. 6A). First, we induced shRNA expression with doxycycline for 48 hours. After recovery, we mixed shPSMD2-RFP and shControl-GFP cells at different ratios (either 1:1, 1:2, 1:5 or 1:10), adding the cells with reduced PSMD2 as the minority subpopulation. Twenty-four hours after plating, we treated these mixed populations of cells for 48 hours with increasing concentrations of bortezomib (5, 7.5 or 10 nM). We allowed the cells to recover in the absence of bortezomib and then we quantified the red and green cells by FACS analysis (FIG. 6A) and captured representative images by fluorescence microscopy (FIG. 6B),
The experiment described in Example 10 was repeated with minor differences using a panel of different proteasome inhibitors: MLN2238, MLN9708, and oprozomib T47D cells harboring a doxycycline inducible control shRNA (GFP) or a doxycycline-inducible PSMD2 shRNA (TurboRFP) were incubated with doxycycline for 3 days. Cells were collected, counted, and plated at a 1:10 ratio of TurboRFP-expressing PSMD2 shRNA cells/GFP expression control shRNA cells in the absence of Dox. Proteasome inhibitors were added at the specified concentrations and cells were maintained in culture. Cells were allowed to recover in the absence of the proteasome inhibitor and then analyzed by FACS (FIG. 8B, top) or visualized by microscopy (FIG. 8B, bottom). In the absence of proteasome inhibitors, the initial plating ratio of these cells (1:10) was maintained over the duration of the experiment (FIG. 8B). […]
Visualization and FACS analysis of GFP/RFP levels—cells were trypsinized in 100 μL Accumax® solution and further diluted into 100 μl PBSx1. The number of cells with red or areen fluorescent proteins was measured by MACSQuant® VYB according to manufactures protocol. […]

[3] = test system: T47D cells; test: The glucose/galactose drug screen; conditions: for relative viability change of cells grown in glucose versus galactose: 10 mM Glucose or Galactose, Selleck anti cancer and natural product libraries
Protocol: We conducted a second set of drug screens to identify unique sensitivities conferred by the Hi-OXPHOS state using parental T47D breast cancer cells (without 19S subunit suppression). For this screen, we used the NPC and CDL libraries as they contained the greatest number of hits in the Lo19S screen. We tested over 800 compounds at multiple concentrations and measured their effects on relative cell growth/viability when cells were grown under aerobic glycolysis conditions (glucose-supplemented medium) or forced mitochondrial respiration conditions (galactose-supplemented medium).
The glucose/galactose drug screen—T47D cells growing in regular media were collected counted and after centrifugation cells were re-suspended in RPM1 media without glucose containing 10% dialyzed serum with the addition of either 10 mM glucose or 10 mM galactose, Cells were then plated at 1000 cells/well in 384-well opaque, white assay plates (Coming, N.Y.), 50 uL per well, and incubated overnight at 37°C./5% CO2. Application of the drug libraries and cell viability was executed as described above for the Lo19S drug screen.

[4] = test system: T47D cells; test: Drug library screen (Selleck anti-cancer, NPC, NIH bioactive), PSMD2 KD vs control T47D cells
Protocol: Schematic representation of the drug screen setup. (FIG. 37A) 147D cells harboring a doxycycline-inducible PSMD2 shRNA were grown in the presence or absence of doxycycline for 48 hr. Cells were then collected, washed, and plated in the absence of doxycycline for 24 hr prior to exposure different compounds. Relative cell numbers were measured 3 days later.
The relative viability of the Lo19S versus control cells was calculated for replica experiments and the log2 of the ratio is plotted. […] The relative viability of the respiring cells (Hi-OXPHOS) (gal) versus the control cells (glu) was calculated for replica experiments and the log2 of the ratio is plotted.
After 48 hours the cells were collected, counted, and plated at 1000 cells/well in 384 well plates in duplicates for each cell line. Compounds from the Selleck Chemicals anti-cancer compound library (349 drugs in 4 concentrations; […]) were pinned the next day and viability was measured after 72 hours by the reduction of Resazurin (Ex=530 run, Em=590nin). (See FIG. 37A for schematic of screen.)

[5] = test system: IMR32 (reduced PSMD5) and Kelly neuroblastoma cells; test: Viability of IMR32 versus Kelly neuroblastoma cells (CellTiter-Glo); conditions: other experiments, e.g., 0.1 uM
[6] = test system: IMR32 (reduced PSMD5) and Kelly neuroblastoma cells; test: as above; conditions: 72 hours after addition; CellTiter-Glo
Protocol: To determine whether these compounds also differentially affect cells with reduced expression of PSDMS, IMR32 and Kelly cells were each cultured in the presence of ABT-263, disulfiram, or elesclomol across a range of concentrations. Cell viability was measured by CellTiter-Glo® Luminescent Cell Viability Assay 72 hours after addition of the compound to cells. The fold viability relative to culture in the absence of the compound was determined for each cell line. […] In the experiment shown in FIG. 24, the lowest lower concentration of ABT-263 and disulfiram tested was 1 uM.
ABT-263 targets several members of the BCL2 family, including BCL2 and BCL-XL.

[7] = test system: T47D cells; test: Cell viability, T47D cells with doxycycline-inducible PSMD2 shRNA (KD) vs control; conditions: T47D, transient PSMD2 reduction
Protocol: FIGS. 37A-37E: Subunit suppression results in highly specific drug sensitivity alteration. Schematic representation of the drug screen setup. (FIG. 37A) 147D cells harboring a doxycycline-inducible PSMD2 shRNA were grown in the presence or absence of doxycycline for 48 hr. Cells were then collected, washed, and plated in the absence of doxycycline for 24 hr prior to exposure different compounds. Relative cell numbers were measured 3 days later. […] (FIGS. 37C-37E) The relative viability of the PSMD2 knockdown (KD) versus the control was calculated for replica experiments and the log2 of the ratio is plotted for 349 compounds from the Selleck anti-cancer L3000 drug library that were tested in 4 concentrations (FIG. 37C), the Selleck natural product library (NPC) comprising 502 compounds in 5 doses (FIG. 37D), and the NIH bioactive compound library that includes 731 compounds in 4 doses (FIG. 37E). Specific compounds are annotated.
The effect of transient PSMD2 reduction on growth of T47D cells in the presence of different proteasome inhibitors (bortezomib, MLN9708, carfilzomib, oprozornib) was tested. T47D cells harboring a doxycycline inducible control shRNA (GFP) or a doxycycline-inducible PSMD2 shRNA (TurhoRFP) were incubated with doxycycline for 3 days. Cells were then split and grown in the absence of Dox and proteasome inhibitors were then added at various concentrations. Cells were maintained in culture and then counted.
as §1, with “For” for “Generation of the Lo19S T47D cell line—For”, “line- the” for “line—the”, “Dhannacon” for “Dharmacon”, “μg/ml” for “g/ml”, “relevant Examples. The TRIPZ control GFP vector was created by removing the turboRFP from the TRIPZ control vector by digestion with Agel and ClaI and replacing it with GFP amplified with primers flanking with Agel and Clal restriction sites.” for “text.”
Cell Viability Assay—Relative cell growth and survival were measured in 96-well microplate format in the shRNA experiments and in 384 well format in the drug toxicity assays, by using the fluorescent detection of resazurin dye reduction as an endpoint (544 nm excitation and 590 run emission). 2,500 cells in 96 wells format or 1,000 cells in 384 well format were plated 24 hours before compound exposure (for 72 hours or indicated time). Each analysis was performed at least with three replicas.

| SMILES | viability of PSMD2 KD versus control cells (log2 (shPSMD2/Control)) [1] | shift of surviving population toward PSMD2 shRNA cells [2] | relative viability change of cells grown in glucose versus galactose [3] | sensitivity of proteasome inhibitor resistant cancer cells vs sensitive counterpart cells [4] | growth inhibition of T47D cells with reduced level of PSMD2 vs control T47D cells ([4]; Selleck anti-cancer compound library screen) | toxicity at lower concentrations than 1 uM [5] | number of concentrations at which respiring cells were preferentially targeted ([3]; galactose versus glucose) [concentrations] | sensitivity of IMR32 cells relative to Kelly cells (fold viability) [6] | resistance of cells harboring PSMD2 shRNA vs parental line (EC50) [7] |
| --- | --- | --- | --- | --- | --- | --- | --- | --- | --- |
| CC(C)C[C@H](NC(=O)CNC(=O)c1cc(Cl)ccc1Cl)B(O)O [MLN2238] | selectively reduce viability of control cells versus PSMD2 KD cells | substantially shifted the populations of surviving cells | strongest hits in this screen |  |  |  |  |  |  |
| CCN(CC)C(=S)SSC(=S)N(CC)CC [disulfiram, tetraethylthiuram disulfide] | selectively reduce the viability of PSMD2 KD cells versus control cells; also recorded: selectively sensitized cells; also recorded: highly effective in slowing the growth of cells in the Lo19S state |  | cells that respire are predominantly sensitive; also recorded: preferentially targeted respiring cells; also recorded: more potent in cells in the Hi-OXPHOS state | highly sensitive | selectively inhibit growth | a similar level of toxicity was observed | 4 | dramatically more sensitive |  |
| COC[C@H](NC(=O)c1cnc(C)s1)C(=O)N[C@@H](COC)C(=O)N[C@@H](Cc1ccccc1)C(=O)[C@@]1(C)CO1 [oprozomib] |  | substantially shifted the populations of surviving cells |  |  |  |  |  |  | EC50 values increased considerably |
